Converted amounts (≈) assume the structure as drawn. Where two headings read alike, the source gives them in different places.
Legend:
E. coli PBP1b = E. coli PBP1b (Escherichia coli (strain K12), UniProt P02919); experiment: Radioligand competition binding assay with 14C-labeled boronic acid probe, PBP1b
E. coli PBP4 = E. coli PBP4 (Escherichia coli (strain K12), UniProt P24228); experiment: E. coli PBP4 Bocillin-FL fluorescence polarization competition binding assay
From the text: To determine the ability of boronic acid-based test PBP inhibitors to bind Penicillin Binding Proteins (PBPs), Bocillin-FL (fluorescently-labeled penicillin V; ThermoFisher Scientific) was used in a fluorescence polarization (FP) competition binding assay to assess inhibitor binding to PBP2, PBP3 or PBP4 from Escherichia coli. PBPs were cloned and purified as described previously (King, D. T, et al., ACS Infectious Diseases 2015, 1, 175-184). To establish assay conditions for competition binding, an enzyme titration/saturation binding experiment was initially performed. Bocillin-FL was prepared at 0.2 μM in a buffer comprised of 50 mM Hepes (pH 8.0), 300 mM NaCl and 5% (v/v) glycerol. Saturation binding was performed by mixing 40 μl of PBP solutions ranging in concentrations from 0-12 μM with 40 μl of the 0.2 μM Bocillin-FL solution, in individual wells of a black 384-well microplate. FP was measured immediately upon mixing (Excitation, 490 nm; Emission, 520 nm; g-factor, 0.96), using a Cytation3 (BioTek) microplate reader and measured continuously for up to 120 minutes. […] Assays (80 μl final volume) were performed with PBPs at a final concentration of 1.5 μM, Bocillin-FL at 0.1 μM and beta-lactam concentrations that ranged from 0-1000 μM. […] Bocillin-FL was added and the FP immediately measured for 60 minutes (90 minutes for PBP2). The beta-lactam potency was reported as the concentration of beta-lactam required to reduce binding of Bocillin-FL by […] (EC50). […] Binding assays for boronic acid PBP inhibitors were performed in an identical fashion.

[1] = tested on: engineered strain of Escherichia coli harboring CTX-M15; experiment: microbe, parasite or virus in culture; format: cell-based; conditions: Escherichia coli
[2] = fluorescence polarization competition binding with Bocillin-FL, read-out: E. coli K12 PBP4 Potency (EC50)
[3] = read-out: Microbiological Activity (MIC in mg/L), E. coli DH5α/pLBII-CTX-M15, engineered strain producing CTX-M15

E. coli PBP4, sequence (P24228 21-477): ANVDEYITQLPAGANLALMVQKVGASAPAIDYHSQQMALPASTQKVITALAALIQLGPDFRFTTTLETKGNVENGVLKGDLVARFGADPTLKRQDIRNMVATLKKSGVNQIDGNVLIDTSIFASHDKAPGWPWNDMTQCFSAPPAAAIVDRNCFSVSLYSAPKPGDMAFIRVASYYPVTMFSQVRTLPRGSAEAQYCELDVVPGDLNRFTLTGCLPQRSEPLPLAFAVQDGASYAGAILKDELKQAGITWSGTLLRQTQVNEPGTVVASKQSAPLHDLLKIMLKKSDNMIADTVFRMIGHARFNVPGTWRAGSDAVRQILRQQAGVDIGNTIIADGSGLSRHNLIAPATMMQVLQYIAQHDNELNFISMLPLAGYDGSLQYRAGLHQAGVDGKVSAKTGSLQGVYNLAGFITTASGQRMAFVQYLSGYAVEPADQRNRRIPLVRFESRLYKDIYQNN
E. coli PBP1b, sequence (P02919 whole entry): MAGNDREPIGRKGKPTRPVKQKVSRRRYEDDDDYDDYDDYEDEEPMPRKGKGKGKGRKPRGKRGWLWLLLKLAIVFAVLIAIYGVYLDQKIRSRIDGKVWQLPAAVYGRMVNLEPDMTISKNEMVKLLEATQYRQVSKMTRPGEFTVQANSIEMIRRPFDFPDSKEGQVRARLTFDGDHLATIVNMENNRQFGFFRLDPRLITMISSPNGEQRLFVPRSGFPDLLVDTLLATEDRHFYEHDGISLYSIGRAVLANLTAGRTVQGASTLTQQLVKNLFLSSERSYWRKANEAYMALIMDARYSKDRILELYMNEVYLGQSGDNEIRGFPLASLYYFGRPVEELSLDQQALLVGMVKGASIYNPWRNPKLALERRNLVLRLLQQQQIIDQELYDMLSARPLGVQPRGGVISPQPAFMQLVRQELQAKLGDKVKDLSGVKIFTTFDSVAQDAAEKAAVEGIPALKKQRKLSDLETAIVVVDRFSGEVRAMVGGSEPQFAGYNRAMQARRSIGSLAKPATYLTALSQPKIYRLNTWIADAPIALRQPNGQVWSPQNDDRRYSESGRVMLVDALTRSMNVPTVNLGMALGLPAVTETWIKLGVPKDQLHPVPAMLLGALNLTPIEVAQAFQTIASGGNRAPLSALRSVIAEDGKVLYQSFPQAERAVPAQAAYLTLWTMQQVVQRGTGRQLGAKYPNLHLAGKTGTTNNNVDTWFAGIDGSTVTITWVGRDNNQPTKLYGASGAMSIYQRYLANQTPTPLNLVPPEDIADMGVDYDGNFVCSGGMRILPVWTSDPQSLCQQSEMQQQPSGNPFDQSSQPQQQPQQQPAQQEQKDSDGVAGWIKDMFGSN

Row | SMILES | EC50 (E. coli PBP1b) | EC50 (E. coli PBP4; [2]) | MIC [1, 3] | MIC ([1]; read-out: Microbiological Activity (MIC in mg/L), E. coli DH5α/pLBII-CTX-M15) | EC50 (E. coli PBP4)
1 | CCN1CCN(C(=O)NC(C(=O)N[C@H]2Cc3cccc(C(=O)O)c3OB2O)c2csc(N)n2)C(=O)C1=O (stereo partly drawn) [Example 5, (3R)-3-(2-(2-aminothiazol-4-yl)-2-(4-ethyl-2,3-dioxopiperazine-1-carboxamido)acetamido)-2-hydroxy-3,4-dihydro-2H-benzo[e][1,2]oxaborinine-8-carboxylic acid] | < 10 µM | > 500 µM |  |  | 
2 | CCN1CCN(C(=O)NC(C(=O)N[C@H]2Cc3cc(F)cc(C(=O)O)c3OB2O)c2csc(N)n2)C(=O)C1=O (stereo partly drawn) [Example 16, (3R)-3-(2-(2-aminothiazol-4-yl)-2-(4-ethyl-2,3-dioxopiperazine-1-carboxamido)acetamido)-6-fluoro-2-hydroxy-3,4-dihydro-2H-benzo[e][1,2]oxaborinine-8-carboxylic acid] |  | > 500 µM | 32 to 64 mg/L (≈ 58.4 to 117 µM) |  | 
3 | CCN1CCN(C(=O)NC(C(=O)N[C@H]2Cc3cccc(C(=O)O)c3OB2O)c2ccc(O)cc2)C(=O)C1=O (stereo partly drawn) [Example 27, (3R)-3-(2-(4-ethyl-2,3-dioxopiperazine-1-carboxamido)-2-(4-hydroxyphenyl)acetamido)-2-hydroxy-3,4-dihydro-2H-benzo[e][1,2]oxaborinine-8-carboxylic acid] |  | > 500 µM | 8 to 16 mg/L (≈ 15.3 to 30.5 µM) |  | 
4 | CCN1CCN(C(=O)NC(C(=O)N[C@H]2Cc3cccc(C(=O)O)c3OB2O)c2ccc(O)c(O)c2Cl)C(=O)C1=O (stereo partly drawn) [Example 37, (3R)-3-(2-(2-chloro-3,4-dihydroxyphenyl)-2-(4-ethyl-2,3-dioxopiperazine-1-carboxamido)acetamido)-2-hydroxy-3,4-dihydro-2H-benzo[e][1,2]oxaborinine-8-carboxylic acid] |  | > 500 µM | 8 to 16 mg/L (≈ 13.9 to 27.8 µM) |  | 
5 | CCN1CCN(C(=O)NC(C(=O)N[C@H]2Cc3cccc(C(=O)O)c3OB2O)c2cnc(N)s2)C(=O)C1=O (stereo partly drawn) [Example 51, (3R)-3-(2-(2-aminothiazol-5-yl)-2-(4-ethyl-2,3-dioxopiperazine-1-carboxamido)acetamido)-2-hydroxy-3,4-dihydro-2H-benzo[e][1,2]oxaborinine-8-carboxylic acid] | 10 to 100 µM | > 500 µM |  |  | 
6 | CCN1CCN(C(=O)NC(C(=O)N[C@H]2Cc3cccc(C(=O)O)c3OB2O)c2ccc(O)c(O)c2F)C(=O)C1=O (stereo partly drawn) [Example 70] |  |  | 32 to 64 mg/L (≈ 57.3 to 115 µM) |  | 
7 | O=C(O)c1cccc2c1OB(O)[C@@H](NC(=O)C(NC(=O)N1CCN(CCF)C(=O)C1=O)c1ccc(O)c(O)c1Cl)C2 (stereo partly drawn) [Example 71, (3R)-3-(2-(2-chloro-3,4-dihydroxyphenyl)-2-(4-(2-fluoroethyl)-2,3-dioxopiperazine-1-carboxamido)acetamido)-2-hydroxy-3,4-dihydro-2H-benzo[e][1,2]oxaborinine-8-carboxylic acid] | < 10 µM |  | 8 to 16 mg/L (≈ 13.5 to 27 µM) |  | 
8 | CCN1CCN(C(=O)NC(C(=O)N[C@H]2Cc3cccc(C(=O)O)c3OB2O)c2ccc(O)cc2F)C(=O)C1=O (stereo partly drawn) [Example 87, (3R)-3-(2-(4-ethyl-2,3-dioxopiperazine-1-carboxamido)-2-(2-fluoro-4-hydroxyphenyl)acetamido)-2-hydroxy-3,4-dihydro-2H-benzo[e][1,2]oxaborinine-8-carboxylic acid] |  | > 500 µM | 32 to 64 mg/L (≈ 59 to 118 µM) |  | 
9 | CCN1CCN(C(=O)NC(C(=O)N[C@H]2Cc3cccc(C(=O)O)c3OB2O)c2cc(O)c(O)cc2F)C(=O)C1=O (stereo partly drawn) [Example 90, (3R)-3-(2-(4-ethyl-2,3-dioxopiperazine-1-carboxamido)-2-(2-fluoro-4,5-dihydroxyphenyl)acetamido)-2-hydroxy-3,4-dihydro-2H-benzo[e][1,2]oxaborinine-8-carboxylic acid] |  | > 500 µM | 8 to 16 mg/L (≈ 14.3 to 28.7 µM) |  | 
10 | CCN1CCN(C(=O)NC(C(=O)N[C@H]2Cc3cccc(C(=O)O)c3OB2O)c2ccc(S(N)(=O)=O)cc2)C(=O)C1=O (stereo partly drawn) [Example 102, (3R)-3-(2-(4-ethyl-2,3-dioxopiperazine-1-carboxamido)-2-(4-sulfamoylphenyl)acetamido)-2-hydroxy-3,4-dihydro-2H-benzo[e][1,2]oxaborinine-8-carboxylic acid] |  |  | 8 to 16 mg/L (≈ 13.6 to 27.2 µM) |  | 
11 | CCN1CCN(C(=O)NC(C(=O)N[C@H]2Cc3cccc(C(=O)O)c3OB2O)c2cccc(N)n2)C(=O)C1=O (stereo partly drawn) [Example 104, (3R)-3-(2-(6-aminopyridin-2-yl)-2-(4-ethyl-2,3-dioxopiperazine-1-carboxamido)acetamido)-2-hydroxy-3,4-dihydro-2H-benzo[e][1,2]oxaborinine-8-carboxylic acid] | > 100 µM |  |  |  | 
12 | CCN1CCN(C(=O)NC(C(=O)N[C@H]2Cc3cccc(C(=O)[O-])c3OB2O)c2ccc[n+](CC(N)=O)c2)C(=O)C1=O (stereo partly drawn) [Example 107, (3R)-3-(2-(1-(2-amino-2-oxoethyl)pyridin-1-ium-3-yl)-2-(4-ethyl-2,3-dioxopiperazine-1-carboxamido)acetamido)-2-hydroxy-3,4-dihydro-2H-benzo[e][1,2]oxaborinine-8-carboxylate] | > 100 µM |  | 32 to 64 mg/L (≈ 56.5 to 113 µM) |  | 
13 | CCN1CCN(C(=O)NC(C(=O)N[C@H]2Cc3ccc(F)c(C(=O)O)c3OB2O)c2csc(N)n2)C(=O)C1=O (stereo partly drawn) [Example 109, (3R)-3-(2-(2-aminothiazol-4-yl)-2-(4-ethyl-2,3-dioxopiperazine-1-carboxamido)acetamido)-7-fluoro-2-hydroxy-3,4-dihydro-2H-benzo[e][1,2]oxaborinine-8-carboxylic acid] | > 100 µM |  | 2 to 4 mg/L (≈ 3.65 to 7.3 µM) |  | 
14 | CCN1CCN(C(=O)NC(C(=O)N[C@H]2Cc3cccc(C(=O)O)c3OB2O)c2ccc(B(O)O)cc2)C(=O)C1=O (stereo partly drawn) [Example 112] | > 100 µM |  |  | 32 to 64 mg/L (≈ 58 to 116 µM) | 
15 | O=C(O)c1cccc2c1OB(O)[C@@H](NC(=O)C(NC(=O)N1CCN(CCF)C(=O)C1=O)c1ccc(B(O)O)cc1)C2 (stereo partly drawn) [Example 113, (3R)-3-(2-(4-boronophenyl)-2-(4-(2-fluoroethyl)-2,3-dioxopiperazine-1-carboxamido)acetamido)-2-hydroxy-3,4-dihydro-2H-benzo[e][1,2]oxaborinine-8-carboxylic acid] | > 100 µM |  | 32 to 64 mg/L (≈ 56.1 to 112 µM) |  | 
16 | CCN1CCN(C(=O)NC(C(=O)N[C@H]2Cc3cccc(C(=O)O)c3OB2O)c2cccs2)C(=O)C1=O (stereo partly drawn) [Example 115, (3R)-3-(2-(4-ethyl-2,3-dioxopiperazine-1-carboxamido)-2-(thiophen-2-yl)acetamido)-2-hydroxy-3,4-dihydro-2H-benzo[e][1,2]oxaborinine-8-carboxylic acid] | > 100 µM |  | 32 to 64 mg/L (≈ 62.2 to 124 µM) |  | 
17 | CCN1CCN(C(=O)NC(C(=O)N[C@H]2Cc3cccc(C(=O)O)c3OB2O)c2cnc(O)cn2)C(=O)C1=O (stereo partly drawn) [Example 121, (3R)-3-(2-(4-ethyl-2,3-dioxopiperazine-1-carboxamido)-2-(5-hydroxypyrazin-2-yl)acetamido)-2-hydroxy-3,4-dihydro-2H-benzo[e][1,2]oxaborinine-8-carboxylic acid] | > 100 µM | > 500 µM |  |  | 
18 | CCN1CCN(C(=O)NC(C(=O)N[C@H]2Cc3ccc(F)c(C(=O)O)c3OB2O)c2ccc(O)c(O)c2Cl)C(=O)C1=O (stereo partly drawn) [Example 124, (3R)-3-(2-(2-chloro-3,4-dihydroxyphenyl)-2-(4-ethyl-2,3-dioxopiperazine-1-carboxamido)acetamido)-7-fluoro-2-hydroxy-3,4-dihydro-2H-benzo[e][1,2]oxaborinine-8-carboxylic acid] | < 10 µM |  |  |  | 
19 | CCCN1CCN(C(=O)NC(C(=O)N[C@H]2Cc3ccc(F)c(C(=O)O)c3OB2O)c2ccc(O)c(O)c2Cl)C(=O)C1=O (stereo partly drawn) [Example 125] | < 10 µM |  |  |  | 
20 | O=C(O)c1c(F)ccc2c1OB(O)[C@@H](NC(=O)C(NC(=O)N1CCN(CCF)C(=O)C1=O)c1ccc(O)c(O)c1Cl)C2 (stereo partly drawn) [Example 131] | 10 to 100 µM |  |  |  | 30 to 500 µM
21 | CCN1CCN(C(=O)NC(C(=O)N[C@H]2Cc3ccc(F)c(C(=O)O)c3OB2O)c2cc(O)c(O)cc2F)C(=O)C1=O (stereo partly drawn) [Example 136, (3R)-3-(2-(4-ethyl-2,3-dioxopiperazine-1-carboxamido)-2-(2-fluoro-4,5-dihydroxyphenyl)acetamido)-7-fluoro-2-hydroxy-3,4-dihydro-2H-benzo[e][1,2]oxaborinine-8-carboxylic acid] | 10 to 100 µM | > 500 µM |  |  | 
22 | CCN1CCN(C(=O)NC(C(=O)N[C@H]2Cc3ccc(F)c(C(=O)O)c3OB2O)c2ncc(O)cc2F)C(=O)C1=O (stereo partly drawn) [Example 145, (3R)-3-(2-(4-ethyl-2,3-dioxopiperazine-1-carboxamido)-2-(3-fluoro-5-hydroxypyridin-2-yl)acetamido)-7-fluoro-2-hydroxy-3,4-dihydro-2H-benzo[e][1,2]oxaborinine-8-carboxylic acid] | > 100 µM | > 500 µM |  |  | 
